According to PMC11802874, “The hypolipidemic effect of MI-883, the combined CAR agonist/ PXR antagonist, in diet-induced hypercholesterolemia model” (Nature Communications, 2025):
Several values for one entry are separate records, joined by “and”; a condition that tells them apart may be missing. Equal values may be shown once.

How the values were obtained:
HepaRG cells = assay: RT-qPCR mRNA expression in differentiated HepaRG cells; conditions: Phenobarbital 500 μM, CITCO 1 μM, MI 883 1 μM; ctrl = 1
Excerpt: (§3) HepaRG cells from Biopredic (Rennes, France) were cultivated and differentiated on the 12-well plates. […] Several batches of HepaRG KO CAR (CAR Knockout HepaRG™ Cells, MTOX1012-1VL, RRID:CVCL_B6AA) and PXR Knockout HepaRG™ Cells, MTOX1011-1VL, RRID:CVCL_B6AS) cells have been obtained from Sigma-Aldrich/Merck (Darmstadt, Germany) and cultivated according to the provider’s protocols. […] Experiments with HepaRG KO PXR and HepaRG KO CAR cells have been performed in duplicates at least in two independent experiments.
(§4) RT-qPCR was used to examine gene expression in 2D and 3D PHH, HepaRG cells, or in mouse liver or intestine (ileum) samples as we have described before[60]–[62].
(§5) All qRT-qPCR experiments including Trizol reagent (Life Technologies) total RNA isolation, reverse-transcription using a random hexaprimer, and the MMLV Reverse Transcriptase Kit (ThermoFisher Scientific) we have described before^19. qPCR was performed using TaqMan Fast Advanced Master Mix with TaqMan probes (ThermoFisher Scientific). […] The delta-delta method was used for gene expression quantification normalized to at least two reference genes. Three technical replicates were used for each reaction considering the MIQE guidelines. Data are presented as fold induction to vehicle-treated cells/animals.

[1] = target: T1, human CAR ligand-binding domain (LBD) (Homo sapiens, UniProt Q14994); assay: TR-FRET CAR coactivator assay (LanthaScreen); format: biochemical
T1 construct: purchased ThermoFisher Scientific PV4836
T1 sequence (Q14994 109-348 isoform Q14994-2 limits assumed, other chains not shown): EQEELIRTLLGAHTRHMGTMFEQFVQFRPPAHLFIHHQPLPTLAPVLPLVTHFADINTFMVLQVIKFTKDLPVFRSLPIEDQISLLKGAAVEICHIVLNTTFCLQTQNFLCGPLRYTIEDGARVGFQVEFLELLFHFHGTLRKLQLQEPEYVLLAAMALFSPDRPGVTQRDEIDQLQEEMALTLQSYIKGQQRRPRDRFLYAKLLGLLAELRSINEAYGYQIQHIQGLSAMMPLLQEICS

[2] = Mouse plasma protein binding; format: in vitro ADME
Excerpt: (§1) Plasma protein binding, and stability in human and mouse plasma have been tested as previously described.

[3] = Stability in mouse plasma; format: in vitro ADME; conditions: read-out: Stability in mouse plasma, t1/2
Excerpt: as §1

[4] = Metabolic stability in mouse liver S9 fraction; conditions: male, CD-1, mouse, liver S9 fraction
Protocol: (§2) Shimadzu HPLC system including vacuum degasser, gradient pumps, reverse phase HPLC column, column oven, and autosampler with an API 4000 QTRAP mass spectrometer (Applied Biosystems/MDS Sciex (AB Sciex) with Turbo V ion source and TurboIonspray interface were used. The reference compound midazolam, which is metabolized both by phase I and phase II enzymes, was used. The elimination constant (kel), half-life (t1/2), and intrinsic clearance (Clint) were determined[19] (Table S1).

[5] = tested on: primary human hepatocytes (PHH); assay: RT-qPCR mRNA expression in 2D primary human hepatocytes
Excerpt: The cells were cultivated as 2D monolayers according to the manufacturer’s protocol.
as §4

HepaRG KO CAR cells = assay: RT-qPCR mRNA expression in HepaRG KO CAR cells; format: cell-based, human; conditions: Phenobarbital 500 μM, CITCO 1 μM, MI 883 1 μM; ctrl = 1
Excerpt: as §3, §4, §5

human CAR variant 3 = target: T2, human CAR variant 3 (Homo sapiens, UniProt Q14994, DEL233-236); assay: CAR3 luciferase reporter assay (CYP2B6-luc) in HepG2 cells; format: cell-based
T2 construct: host or cells: HepG2
T2 sequence (Q14994 with tags, fused parts or gaps isoform Q14994-8 DEL233-236): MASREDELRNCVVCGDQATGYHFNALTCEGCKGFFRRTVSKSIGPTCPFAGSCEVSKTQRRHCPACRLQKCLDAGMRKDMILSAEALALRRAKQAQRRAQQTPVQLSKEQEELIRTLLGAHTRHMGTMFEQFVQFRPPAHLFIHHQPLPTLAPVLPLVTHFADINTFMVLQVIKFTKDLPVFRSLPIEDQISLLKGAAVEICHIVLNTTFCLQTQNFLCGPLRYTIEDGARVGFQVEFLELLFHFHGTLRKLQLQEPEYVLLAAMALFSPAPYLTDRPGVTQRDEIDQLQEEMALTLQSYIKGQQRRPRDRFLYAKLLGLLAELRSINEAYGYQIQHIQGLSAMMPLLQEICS
T2 sequence (P19793 1-462 partner): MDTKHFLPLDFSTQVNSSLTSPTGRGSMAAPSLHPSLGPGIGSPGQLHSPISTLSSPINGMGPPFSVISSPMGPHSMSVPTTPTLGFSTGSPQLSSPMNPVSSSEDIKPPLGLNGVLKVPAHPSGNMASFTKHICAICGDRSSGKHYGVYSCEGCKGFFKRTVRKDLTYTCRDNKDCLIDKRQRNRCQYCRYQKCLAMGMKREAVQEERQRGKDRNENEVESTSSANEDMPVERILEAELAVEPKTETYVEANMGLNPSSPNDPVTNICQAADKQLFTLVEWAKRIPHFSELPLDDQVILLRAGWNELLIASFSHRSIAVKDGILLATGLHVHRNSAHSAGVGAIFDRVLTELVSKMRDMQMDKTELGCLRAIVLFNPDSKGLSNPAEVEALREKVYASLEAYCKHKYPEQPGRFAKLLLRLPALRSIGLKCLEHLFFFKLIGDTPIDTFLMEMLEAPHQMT
Protocol: CAR3 luciferase reporter assay (with CYP2B6-luc) was performed in human hepatocellular carcinoma HepG2 cells as we described[19] For the CAR3 assay (Fig. 1d), a CYP2B6-luc reporter plasmid (originally entitled B-1.6k/PB/XREM) was kindly donated by Dr. Hongbing Wang (University of Maryland School of Pharmacy, Baltimore, MD, USA). All expression vectors are described in Supplementary, Chapter 4).
Cells were treated for 24 h with MI-883 in a range of concentration from 0.1 nM to 30 µM (n = 3). The half maximal effective concentration (EC50) to activate CAR or inhibit PXR (IC50) in the assays was calculated from at least eight points of the dose-response curves using the GraphPad Prism software.

[6] = tested on: humanized PXR-CAR-CYP3A4/3A7 mice; assay: Hepatic induction study in humanized PXR-CAR-CYP3A4/3A7 mice (i.p.); format: in vivo, mouse; conditions: single agents i.p.: Rif 3×5 mg/kg, CITCO 10 mg/kg two doses, MI-883 10 mg/kg 3 days
Excerpt: In the induction experiments, […] was sampled from the gallbladder.

[7] = Metabolic stability in human liver S9 fraction; conditions: human, liver S9 fraction
Protocol: as §2
Supplementary Figure 1. […] Test compounds (1 μM, final DMSO concentration 1%) were incubated at 37 °C with shaking at 100 rpm. Four time points over 120 minutes have been analyzed. The reactions were stopped by adding 420 μL of acetonitrile-water mixture (90:10). Supernatants were analyzed by the HPLC system coupled with a tandem mass spectrometer. The percentage (in % of initial concertation) of the test compounds remaining after incubation in plasma and their half-lives (t1/2) were calculated. […] The stability of the compound was tested in human liver S9 fraction. Cofactors were used such as UDPGA (for glucuronidation), PAPS (for sulfation), and reduced glutathione (for conjugation of GSH). Compounds were tested in triplicate with or without NADPH. Propantheline and midazolam were used as unstable control compounds in the experiments. Data represent the means±S.D. from at least three independent samples.

GRα = GRα (Homo sapiens, UniProt P04150); assay: Luciferase reporter gene assay GRα, HepG2; conditions: ligand: Dexamethasone 100 nM
GRα, sequence (P04150 whole entry): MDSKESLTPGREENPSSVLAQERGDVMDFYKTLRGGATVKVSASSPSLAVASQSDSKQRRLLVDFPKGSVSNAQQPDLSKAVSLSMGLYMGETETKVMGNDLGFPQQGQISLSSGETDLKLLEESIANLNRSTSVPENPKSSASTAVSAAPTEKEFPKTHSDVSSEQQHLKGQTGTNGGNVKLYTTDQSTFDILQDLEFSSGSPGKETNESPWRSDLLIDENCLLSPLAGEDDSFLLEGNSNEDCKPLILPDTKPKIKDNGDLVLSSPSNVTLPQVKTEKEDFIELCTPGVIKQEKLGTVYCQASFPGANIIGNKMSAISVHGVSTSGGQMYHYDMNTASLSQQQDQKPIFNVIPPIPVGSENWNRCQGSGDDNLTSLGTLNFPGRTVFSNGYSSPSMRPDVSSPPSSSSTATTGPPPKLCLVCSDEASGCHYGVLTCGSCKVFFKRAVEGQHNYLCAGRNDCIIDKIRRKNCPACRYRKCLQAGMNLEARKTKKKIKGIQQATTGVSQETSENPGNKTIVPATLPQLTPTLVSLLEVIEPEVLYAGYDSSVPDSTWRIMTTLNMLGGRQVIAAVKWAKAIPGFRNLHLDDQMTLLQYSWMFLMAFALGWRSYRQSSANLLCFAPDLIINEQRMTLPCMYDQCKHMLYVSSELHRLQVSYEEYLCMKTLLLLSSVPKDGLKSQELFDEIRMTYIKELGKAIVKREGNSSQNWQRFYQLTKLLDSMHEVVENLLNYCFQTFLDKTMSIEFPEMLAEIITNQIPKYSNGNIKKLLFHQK
Excerpt: Gal4-LBD constructs of tested nuclear receptors have been used together with pGL4.31[luc2P/GAL4UAS/Hygro] luciferase reporter construct and pRL-TK Renilla expression vector (both from Promega, Hercules, USA) in HepG2 cells transfected with Lipofectamine 2000 or 3000 reagents. For GRα and FXR receptors, full-length expression vectors have been used with pGRE-luc or pFXRE-luc luciferase constructs. For the aryl hydrocarbon receptor (AhR), p1A1-luc construct was used with only pRL-TK vector for transfection normalization. A dual reporter assay (Promega, Hercules, USA) was used to analyze both firefly and Renilla luciferase activities.
Gal4-LBD constructs of tested nuclear receptors have been used together with pGL5-luc luciferase reporter construct and pRL-TK Renilla expression vector in HepG2 cells transfected with Lipofectamine 2000 or 3000 reagents. For GRα and FXR receptors, full-length expression vectors have been used with pGRE-luc or pFXRE-luc luciferase constructs. For the aryl hydrocarbon receptor (AhR), p1A1-luc construct was used with only pRL-TK vector for transfection normalization. […] Bars represent means±S.D. (n=3).

[8] = single agent 5 μM: MI-883, CITCO (5 μM) alone

Clc1ccc(-c2nc3sccn3c2C=NOCc2ccc(Cl)c(Cl)c2)cc1 [CITCO, 6-(4-chlorophenyl)imidazo[2,1-b][1,3]thiazole-5-carbaldehyde-O-(3,4-dichlorobenzyl)oxime, reference compound]
CYP2B6 mRNA, RT-qPCR, HepaRG (Fig. 1f), replicates (HepaRG cells): 6.95 and 5.3 and 5.5 | TR-FRET CAR Coactivator assay, mean signal (Fig. 1b) ([1]; 100pM): 1 | TR-FRET CAR Coactivator assay, mean signal (Fig. 1b) ([1]; 1nM): 1.176 | TR-FRET CAR Coactivator assay, mean signal (Fig. 1b) ([1]; 10nM): 1.375 | TR-FRET CAR Coactivator assay, mean signal (Fig. 1b) ([1]; 30nM): 1.960 | TR-FRET CAR Coactivator assay, mean signal (Fig. 1b) ([1]; 100nM): 2.115 | TR-FRET CAR Coactivator assay, mean signal (Fig. 1b) ([1]; 0.5μM): 2.111 | TR-FRET CAR Coactivator assay, mean signal (Fig. 1b) ([1]; 1 μM): 2.154 | TR-FRET CAR Coactivator assay, mean signal (Fig. 1b) ([1]; 10 μM): 2.134 | TR-FRET CAR Coactivator assay, mean signal (Fig. 1b) ([1]; 30 μM): 2.146 | fraction unbound [2]: 0.02 | half-life [3]: > 120 min | half-life [4]: 39.2 min | microsomal CLint [4]: 9 µL/min/mg | CYP2B6 mRNA, RT-qPCR, PHH (Fig. 1g), replicates ([5]; 1 mM, ctrl = 1): 10.10 and 18.10 and 7.00 | CYP2B6 mRNA in PHH 2 donors (Fig. 3c) [5, 8]: 11.1246 and 12.1237 | CYP3A4 mRNA in PHH 2 donors (Fig. 3c) [5, 8]: 2.55 and 3.999 | CYP2B6 mRNA, RT-qPCR, HepaRG KO CAR (Fig. 1f), replicates (HepaRG KO CAR cells): 1.15 and 1.05 and 0.84 | CAR3 variant activation (Fig. 1d), replicates (human CAR variant 3; concentration 0.01 (unit not given), HepG2, 24 h): 0.85 and 0.95 and 1.03 | CAR3 variant activation (Fig. 1d), replicates (human CAR variant 3; concentration 0.1 (unit not given)): 0.4 and 1 and 3.5 | CAR3 variant activation (Fig. 1d), replicates (human CAR variant 3; concentration 1 (unit not given)): 1.25 and 6.4 and 1.2 | CAR3 variant activation (Fig. 1d), replicates (human CAR variant 3; concentration 10 (unit not given)): 10 and 12.8 and 12 | CAR3 variant activation (Fig. 1d), replicates (human CAR variant 3; concentration 30 (unit not given)): 20.7 and 11.1 and 15.3 | hepatic CYP3A4 mRNA, hPXR/hCAR/CYP3A4/7 mice (Fig. 3e), individual animals [6]: 3.5706 and 5.153 and 1.198 and 3.457 | hepatic Cyp2b10 mRNA, hPXR/hCAR/CYP3A4/7 mice (Fig. 3e), individual animals [6]: 6.356 and 6.521 and 7.777 and 9.457 | half-life at 2 µM [7]: 22.5 min | microsomal CLint at 2 µM [7]: 15 µL/min/mg

C[C@@H]1C[C@H]2[C@@H]3CCC4=CC(=O)C=C[C@]4(C)[C@@]3(F)[C@@H](O)C[C@]2(C)[C@@]1(O)C(=O)CO [Dexamethasone]
NRs assays: GRa (relative to ctrl, replicates) (GRα): 19.01 and 18.01 and 16.69
